Laboratory results: PubChem BioAssay AID2305 (GlaxoSmithKline (GSK), 2010)

What follows are compounds tested on P. falciparum 3D7 growth, pLDH absorbance (assay: P. falciparum 3D7 growth inhibition, dose response, strain 3D7 (AID 2305)).

Structure (SMILES)	IC50 [nM]
O=C(Nc1cc(F)cc(F)c1)NC1CCN(CCCCCNC(=O)[C@@H]2C[C@H]2c2ccc(Cl)c(Cl)c2)CC1	750
CC(C)C[C@H](NC(=O)[C@H](Cc1ccccc1)N(C[C@H](Cc1ccccc1)NC(=O)OC(C)(C)C)C(=O)C(F)(F)F)C(=O)NC1CCN(Cc2ccccc2)CC1	530
Nc1c(Cl)cc(C(O)CNCCCCCOCCc2ccc3occc3c2)cc1Cl (stereo not given)	690
COc1cc(Cc2cnc(N)nc2N)cc(OCCCN2C(=O)c3ccccc3C2=O)c1OC	990
COc1ccc2nc3cc(Cl)ccc3c(NCCc3ccccc3)c2c1	950
COc1ccc(-c2cnc3[nH]cc(-c4ccc(C(=O)O)c(C)c4)c3c2)cn1	310
Cc1cccn2c(=O)c3cc(C(=O)NCCN4CCOCC4)c(=N)n(CCc4ccccc4)c3nc12	470
COc1ccc(-c2cc(C(=O)N3CCc4ccccc43)c3ccccc3n2)cc1OC	330
CCCCc1cc(NC2CCN(C)CC2)nc(Nc2ccccc2)n1	660
COc1ccc2nc3cc(Cl)ccc3c(N)c2c1	170
CC(C)CCN1CCC(Oc2ccc(NC(=O)c3ccccc3)cc2Cl)CC1	1300
COc1ccc(C2CCN(CCCNC(=O)c3ccc(NC(=O)c4ccc(Cl)cc4)cc3)CC2)c(OC)c1	760
COc1c(C2CCN(CCCCNC(=O)c3ccc(NC(=O)c4ccc(C#N)cc4)cc3)CC2)ccc2c1CCCC2	290
CCC(C(=O)Nc1ccccc1)n1nc(-c2ccc(C)c(S(=O)(=O)N3CCCCC3)c2)ccc1=O (stereo not given)	1090
CN(CCCNC(=S)NC12CC3CC(CC(C3)C1)C2)CCCNc1ccnc2cc(Cl)ccc12	120
O=C(Nc1nc2cc(S(=O)(=O)NCCc3ccc(F)cc3)ccc2n1CCCn1ccnc1)c1ccc(Cl)cc1	1110
N#Cc1ccc(-c2ccc(OCC(O)CN3CCCN(C(=O)C(c4ccc5c(c4)OCO5)N4CCN(C/C=C/c5ccccc5)CC4)CC3)cc2)cc1 (stereo not given)	650
COc1ccc(CNc2ccc3nc(N)nc(N)c3c2)cc1	170
Cc1c(-c2cccc(Br)c2)[nH]c2nc(N)nc(N)c12	740
Cc1cc(-c2cccc3c(NC(=O)N4CCc5cc6nccc(N7CCN8CCC[C@H]8C7)c6cc54)cccc23)cc(C)n1	490
O=S(=O)(c1csc2ccccc12)N(CCC(O)(C(F)(F)F)C(F)(F)F)Cc1cccc(O)c1	360
O=C(Nc1cccc(CN2CCN(C(=O)c3cccs3)CC2)c1)c1cccs1	780
CCCCCCN1CCCN(Cc2ccc(C(=O)Nc3cccc(CC)c3)cc2)CC1	670
COC(=O)Cn1c(C2CCN(CC3CCN(C(=O)/C=C/c4ccc(Cl)c(Cl)c4)CC3)CC2)nc2ccccc21	1200
Cc1cc(N[C@@H](CC(C)C)C(=O)Nc2ccccc2)nc(NCCc2ccccc2)n1	890

Structure (SMILES)	IC50 [nM]
c1cc(-c2nc3ccccc3[nH]2)nc(-c2nc3ccccc3[nH]2)c1	1120
COc1ccc(OC)c2c1CCN(CCN1CCC(C(=O)Nc3ccc(C(=O)Nc4ccc(Cl)cc4)cc3)CC1)C2	580
S=C(NN=Cc1ccccn1)NC1C[C@H]2C=C[C@@H]1C2 (stereo not given in full)	720
Cc1cccc2[nH]c(-c3cccc(-c4cccc(C(=O)NCCN5CCCC5)c4)c3)nc12	830
Cc1cccc2[nH]c(-c3ccc(-c4ccc(CNCc5cccc(N)c5)cc4)s3)nc12	750
CCn1cc(C(=O)O)c(=O)c2cc(F)c(N3CCN(S(=O)(=O)c4ccc(N)cc4)CC3)cc21	920
COc1cccc(Nc2nccc(NCC(O)c3ccc(C(F)(F)F)cc3)n2)c1 (stereo not given)	660
c1ccc2[nH]c(-c3ccc(-c4ccc(CN5CCN(CCN6CCOCC6)CC5)cc4)s3)nc2c1	280
O=C(NCc1ccc(Cl)cc1)c1ccc(CN2CCCN(Cc3cccc(O)c3)CC2)cc1	1170
COc1cc(NC(=O)c2cccs2)c(C(=O)NCc2ccc(C)cc2)cc1OC	1360
COCn1ccc2c3c(N)nc(N)nc3ccc21	990
c1ccc(-c2nc3ccccc3[nH]2)c(Nc2ccnc3cc(-c4nccs4)ccc23)c1	740
c1ncc(CCNc2nc(Nc3ccc4c(c3)OCO4)nc(NC3CCCC3)n2)[nH]1	1150
CCNc1cc(C(=O)N[C@@H](Cc2ccccc2)[C@H](O)CN[C@H]2CCc3ccccc32)cc(N2CCCC2=O)c1	290
COc1cc(CNC[C@@H](O)[C@H](Cc2ccccc2)NC(=O)c2cc(OC(C)C)cc(N3CCCCS3(=O)=O)c2)cc(OC)c1	590
Cc1[nH]c(C)c(-c2ccc(OCc3cc(C(F)(F)F)cc(C(F)(F)F)c3)nc2)c(=O)c1Br	150
O=C(NCCN1CCCCC1)c1ccc(Nc2nccc(Nc3ccc(Oc4ccccc4)cc3)n2)cc1	550
NC1CCN(Cc2ccc(-c3ccc(-c4nc5ccccc5[nH]4)cc3)cc2)C1 (stereo not given)	150
Nc1ccc2[nH]cc(C3CCN(CC4CCC(NC(=O)/C=C/c5ccccc5Cl)CC4)CC3)c2n1 (stereo not given)	690
O=C(NC1CCN(Cc2ccccc2O)C1)c1ccc(-c2ccccc2)cc1 (stereo not given)	840
Cn1nc(-c2ccc(S(=O)(=O)N3CCC(CN4CCC(c5c[nH]c6ccccc56)CC4)CC3)s2)cc1C(F)(F)F	1090
CCc1ccc(CN2CCC(CN(C(=O)c3ccccc3)c3ccc(Cl)cc3)CC2)cc1	990
O=S(=O)(c1c(Cl)cccc1Cl)N1CCCCC(c2ccc(C(F)(F)F)cc2)=N1	130
Fc1ccccc1COc1ccc(Nc2ncnc3ccc(I)cc23)cc1Cl	930
O=C1C2=C(Nc3ccccc3SC2c2cccs2)c2ccccc21 (stereo not given)	230

Structure (SMILES)	IC50 [nM]
NC(=O)c1cccc(Nc2nccc(Nc3ccc(Oc4c(Cl)cccc4Cl)c(Cl)c3)n2)c1	870
COc1ccccc1OCCN(CC(O)COc1cccc2[nH]c3ccccc3c12)CC(O)COc1cccc2[nH]c3ccccc3c12 (stereo not given)	640
O=C(Nc1ccc(N2CCCN(Cc3cccc(F)c3)CC2)cc1)c1ccc(F)cc1	840
Oc1ccccc1CNCC12CC3CC(CC(C3)C1)C2	280
CC(C)CCNCc1ccc(OCc2ccccc2COc2ccc(CNCCC(C)C)cc2I)c(I)c1	430
COc1ccc2nccc(NN=Cc3ccccc3Cl)c2c1	660
Cc1ccc(Nc2nccc(NCC(O)c3cccc(C)c3)n2)cc1 (stereo not given)	1020
COc1cc(Cc2cnc(N)nc2N)c2ccsc2c1OC	1070
O=C1C([N+](=O)[O-])=C(O)c2cccc(F)c21	150
COc1cc(SC)ccc1C(=O)N1CC(C)CC(C)C1 (stereo not given)	350
COC(=O)/C=C/c1ccc(CCC(C)NCC(O)c2cccc(Cl)c2)cc1 (stereo not given)	940
C=CCc1ccccc1OCC(O)CN(C1CCCCC1)C1CCCCC1 (stereo not given)	810
CCN1CCC(N(CCCCCCc2ccc(C(F)(F)F)cc2)C(=O)Cn2c(CCc3cccc(F)c3F)cc(=O)c3ccccc32)CC1	930
CCCCCCCc1[nH]c2ccccc2c(=O)c1C	510
Cc1cc(NCCC(=O)NCc2cccc(F)c2)nc(Nc2ccccc2)n1	1050
Cc1ccc(Cn2nc(N3CCNCC3)ccc2=O)cc1NC(=O)Nc1ccc(-c2ccccc2)cc1	840
O=C(N[C@@H](CC1CCCCC1)C(=O)NCc1cccc2ccccc12)c1ccc(O)c(-c2ccc(Cl)c(Cl)c2)c1	220
Cc1c(Cl)cccc1S(=O)(=O)Nc1cccc(CCN2CCC(N3CCCCC3)CC2)c1	830
CCN1CCN(c2ccc(Nc3ccnc4ccc(Br)cc34)cc2)CC1	300
COc1ccc2ccccc2c1CNCCCCCCNCc1c(OC)ccc2ccccc12	710
COc1cccc(CNc2ncc(-c3ccsc3)c(-c3nccs3)n2)c1	420
FC(F)(F)c1ccc2nc(-c3ccc(-c4cccc(CNCCc5ccncc5)c4)s3)[nH]c2c1	120
O=C(COc1ccccc1)NC1CCN(c2ccnc3cc(Cl)ccc23)C1 (stereo not given)	700
O=c1cc(NCCCNCc2scc3c(Cl)cc(C(F)(F)F)nc23)[nH]c2ccccc12	750
O=C(NC1CC1)c1ccc(N2CCN(Cc3ccc(Cl)cc3)CC2)nc1	1340

Structure (SMILES)	IC50 [nM]
Cc1cccc2[nH]c(-c3cccc(-c4cccc(NC(=O)C(C)CN5CCN(C)CC5)c4)c3)nc12 (stereo not given)	540
Cn1nc(C(F)(F)F)c(-c2ccc(F)cc2)c1NC(=O)Nc1ccc(F)cc1	750
CCN(CC)CCNC(=O)c1ccc(Nc2ncc([N+](=O)[O-])c(Nc3ccccc3OC)n2)cc1	140
Clc1cc(Cl)c2cc(CNCCCNc3ccc4ccccc4n3)[nH]c2c1	340
O=c1cc(NCCCNCc2cc3c(Cl)cc(Cl)cc3[nH]2)[nH]c2ccccc12	860
Oc1ccc(CCNc2nc(NCCCOc3cccc(CN4CCCCC4)c3Cl)nc(N3CCNCC3)n2)cc1	1370
COc1ccc(CCn2c(=N)c(C(=O)NCc3cccnc3)cc3c(=O)n4cccc(C)c4nc32)cc1	1400
CCOc1ccc(NC(C)=O)c(O)c1	840
CC1CCCCC1N(C)C1CCN(CCCNC(=O)C=Cc2cccc(C(F)(F)F)c2)CC1 (stereo not given)	770
CN1CCN(CCCN(Cc2ccc(-c3cccc(CNCc4ccc5c(c4)OCO5)c3)cc2)C(=O)NCCc2ccccc2)CC1	840
COc1ccc(-c2ccc(NC(=O)c3cccc(C#N)c3)cc2)cc1CN1CCNCC1	730
COc1ccc(CCNCc2cc3c(C(C)(C)C)nn(-c4ccc(Cl)cc4)c3[nH]c2=O)cc1OC	150
CCCC1N=C(N)N=C(N)N1c1ccc(C)cc1 (stereo not given)	100
CCc1[nH]nc(C(=O)NC2CCN(CC3(c4ccc(OC)cc4)CCCCC3)CC2)c1C	890
Cc1cc(NC2CCCC2)nc(Nc2ccccc2F)n1	930
COc1ccc2nccc([C@@H](O)CN3CCC(CO)(NCc4cc5ccccc5o4)CC3)c2c1	1370
Cc1csc2nc(-c3ccccn3)nc(Nc3ccc4ncsc4c3)c12	1110
COc1ccc2ccc(OC)c(CNCCCCCCNCc3c(OC)ccc4ccc(OC)cc34)c2c1	700
CC[C@H](NC(=O)c1c(CN2CCC(N3CCCCC3)CC2)c(-c2ccccc2)nc2c(Cl)c(O)ccc12)c1ccccc1	730
O=C(NC1CC1)c1ccc(N2CCCC(COc3ccc4c(c3)CCCC4)C2)nc1 (stereo not given)	1080
COc1ccccc1NC(=O)Nc1cccc(-c2ccc(-c3nc4c(C)cccc4[nH]3)s2)c1	580
CN1CCC(c2cc3c(cc2Br)CCN3C(=O)Nc2ccc(-c3ccncc3)c(Cl)c2)CC1	1010
Cc1cc(N(C)C)nc(Nc2ccc(NC(=O)c3ccccc3C)cc2)n1	1130
OC(CNCc1ccccc1OCc1ccccc1)c1cccc(Cl)c1 (stereo not given)	220
O=C(CC1SC(N2N=C(c3cccs3)CC2c2ccccc2)=NC1=O)Nc1ccccc1F (stereo not given)	1090
